{"source": "paper PMC10436260", "about": "“Thiazolide Prodrug Esters and Derived Peptides: Synthesis and Activity” (ACS Bio & Med Chem Au, 2023)", "key": {"[1]": {"tested_on": "influenza A virus (IAV) strain A/PuertoRico/8/1934(H1N1) (PR8)", "assay": "microbe, parasite or virus in culture", "assay_type": "cell-based"}, "[2]": {"conditions": "rat, in vivo, po; cited from earlier work"}, "[3]": {"assay_type": "physicochemical", "conditions": "for stability of solutions: pH 5", "source_text": "We studied the aqueous stability further by NMR, Figures 1 and 2. […] In the case of valacyclovir, which we originally used as a model for 5a and 6, it was known that some hydrolysis occurred in vivo.[17] Clearly, at the 18 day time point [Figure 2g], the rearrangement and hydrolysis products accounted for ∼50% of the total analyte. In Figure 3, the aryl region is integrated and compared with the spectra of 5a, 3, and 8 (see below).\nFigure 2 Time-course ^1H NMR spectra of the aromatic region of 5a in d6-DMSO + 10%D2O. Evolution with time over an 18 day period at 298–313 K. The sample was held in an isothermal bath at a specified temperature between measurements. Spectra were recorded at the temperature stated in each case. (a) t = zero, 298 K; (b) t = 1 week, 308 K; (c) t = 8 days, 308 K; (d) t = 9 days, 308 K; (e) t = 11 days, 313 K; (f) t = 14 days, 313 K; (g) t = 18 days, 313 K.\nFigure 3 Assignment and integration of the final time-point spectrum."}, "physchem [4]": {"assay": "physchem", "conditions": "pH 7.4"}, "[5]": {"assay": "cell viability by MTT assay in mock-infected cells", "assay_type": "cell-based, canine", "conditions": "dog; mock-infected MDCK cells, MTT, 24 h; read-out: CC50 (50% cytotoxic concentration)", "description": "(§1) Madin–Darby canine kidney (MDCK) cells (American Type Culture Collection, ATCC) were grown at 37 °C in a 5% CO2 atmosphere in an RPMI-1640 medium (LONZA-CAMBREX, Basel, Switzerland), supplemented with 10% fetal calf serum (FCS), 2 mM glutamine, and antibiotics. Tizoxanide (Romark Laboratories, L.C.) and derived peptides, dissolved in a dimethyl sulfoxide (DMSO) stock solution, were diluted in culture medium, added to infected cells after a one-hour virus adsorption period, and maintained in the medium for the duration of the experiment.\n(§2) Cell viability was determined by the 3-(4,5-dimethylthiazol-2-yl)-2,5-diphenyltetrazolium bromide (MTT) to MTT formazan conversion assay (Sigma-Aldrich), as described.[28],[29] The 50% cytotoxic dose (CC50) was calculated using Prism 5.0 software (Graph-Pad Software Inc.).[28]\n(§3) Confluent cell monolayers were mock-infected or infected with PR8 virus for 1 h at 37 °C at a multiplicity of infection (MOI) of 5 HAU (hemagglutinating units)/10^5 cells, as described.[30],[31] After the adsorption period, the viral inoculum was removed and cells were treated with different concentrations (0.1, 1, 5, 10, and 50 μg/mL) of each compound or vehicle and maintained at 37 °C in an RPMI-1640 medium containing 2% FCS for 24 h; in parallel, cell viability was determined in mock-infected cells by the MTT assay, as described above. Virus yield was determined 24 h post infection (p.i.) by HA titration, as described.[31] Compounds’ IC50 (50% inhibitory concentration) and IC90 (90% inhibitory concentration) were calculated using Prism 5.0 software."}, "in vitro": {"assay": "in vitro", "assay_type": "in vitro ADME", "conditions": "human, microsomes", "source_text": "Table 1 Summarized DMPK and Antiviral Data for Thiazolides and Derived Peptides | column: clearance HLM μL/min/mg"}, "physchem [6]": {"assay": "physchem", "assay_type": "physicochemical", "source_text": "Table 1 Summarized DMPK and Antiviral Data for Thiazolides and Derived Peptides | column: log P"}, "[7]": {"assay": "clearance in rat hepatocytes (RH)", "assay_type": "in vitro ADME", "source_text": "Table 1 Summarized DMPK and Antiviral Data for Thiazolides and Derived Peptides | column: clearance RH μL/min/10^6 cells"}, "[8]": {"tested_on": "Madin–Darby canine kidney (MDCK) cells", "assay": "cell viability by MTT assay in mock-infected cells", "assay_type": "cell-based", "conditions": "antiviral assay conditions, MDCK cells", "description": "as §1, §2, §3"}, "[9]": {"conditions": "CC50 (MDCK) / IC50 (influenza A)"}, "[10]": {"conditions": "Influenza A virus, MDCK, 24 h; read-out: IC50 (50% inhibitory concentration)"}, "[11]": {"conditions": "Influenza A virus, MDCK, 24 h; read-out: IC90 (90% inhibitory concentration)"}}, "note": "“Also recorded” adds a separate entry of the source. Where two headings read alike, the source gives them in different places.", "data": [{"smiles": "CC(C)(C)[C@H](N)C(=O)Oc1ccccc1C(=O)Nc1ncc([N+](=O)[O-])s1", "note": "[5a]", "values": [{"measurement": "antiviral activity in words", "setting": "[1]; influenza A virus assay", "value": "activity is equivalent to 3"}, {"measurement": "absolute bioavailability", "setting": "[2]", "value": "20–25%"}, {"measurement": "stability on storage", "setting": "[3]", "value": "stable for months"}, {"measurement": "rearrangement and hydrolysis products as share of total analyte / loss of 5a", "setting": "[3]; d6-DMSO + 10% D2O, 298–313 K, 18 day time point, 1H NMR integration", "value": "~50", "unit": "%"}]}, {"smiles": "CC(C)(C)[C@H](N)C(=O)Oc1ccccc1C(=O)Nc1ncc([N+](=O)[O-])s1.Cc1ccc(S(=O)(=O)O)cc1", "note": "[5b, (S)-3,3-Dimethyl-1-(2-((5-nitrothiazol-2-yl)carbamoyl)phenoxy)-1-oxobutan-2-aminium 4-methylbenzenesulfonate]", "values": [{"measurement": "stability of solutions", "setting": "[3]", "value": "unstable"}]}, {"smiles": "CC(C)(C)[C@H](N)C(=O)Oc1ccccc1C(=O)Nc1ncc([N+](=O)[O-])s1.CS(=O)(=O)O", "note": "[5c, (S)-3,3-Dimethyl-1-(2-((5-nitrothiazol-2-yl)carbamoyl)phenoxy)-1-oxobutan-2-aminium Methanesulfonate]", "values": [{"measurement": "stability of solutions", "setting": "[3]", "value": "unstable"}]}, {"smiles": "O=C(Nc1ncc([N+](=O)[O-])s1)c1ccccc1O", "note": "[compound 3, Tizoxanide, reference compound]", "values": [{"measurement": "solubility", "setting": "physchem [4]", "value": 33, "unit": "µM"}, {"measurement": "CC50 at 24 h", "setting": "[5]", "value": "> 189", "unit": "µM"}, {"measurement": "microsomal CLint", "setting": "in vitro", "value": 50.2, "unit": "µL/min/mg"}, {"measurement": "SI, selectivity index, CC50/IC50", "setting": "[1]; [9]", "value": ">82"}, {"measurement": "IC50", "setting": "[1]; [10]", "value": 2.3, "unit": "µM"}, {"measurement": "IC90", "setting": "[1]; [11]", "value": 26.4, "unit": "µM"}, {"measurement": "logP", "setting": "physchem [6]", "value": 1.8}, {"measurement": "hepatocyte CLint", "setting": "[7]", "value": 244, "unit": "µL/min/1e6 cells"}]}, {"smiles": "O=C(Nc1ncc(Cl)s1)c1ccccc1O", "note": "[compound 4, reference compound]", "values": [{"measurement": "solubility", "setting": "physchem [4]", "value": 48, "unit": "µM"}, {"measurement": "CC50 at 24 h", "setting": "[5]", "value": "> 196", "unit": "µM"}, {"measurement": "microsomal CLint", "setting": "in vitro", "value": 37.5, "unit": "µL/min/mg"}, {"measurement": "SI, selectivity index, CC50/IC50", "setting": "[1]", "value": ">50"}, {"measurement": "IC50", "setting": "[1]; Influenza A virus, MDCK, 24 h, read-out: IC50 (50% inhibitory concentration)", "value": 3.9, "unit": "µM"}, {"measurement": "IC90", "setting": "[1]; Influenza A virus, MDCK, 24 h, read-out: IC90 (90% inhibitory concentration)", "value": 19.6, "unit": "µM"}, {"measurement": "logP", "setting": "physchem [6]", "value": 2.9}, {"measurement": "hepatocyte CLint", "setting": "[7]", "value": "> 300", "unit": "µL/min/1e6 cells"}]}, {"smiles": "CC(C)(C)[C@H](N)C(=O)Oc1ccccc1C(=O)Nc1ncc(Cl)s1", "note": "[compound 6]", "values": [{"measurement": "absolute bioavailability", "setting": "[2]", "value": "20–25%"}, {"measurement": "stability on storage", "setting": "[3]", "value": "stable for months"}]}, {"smiles": "CC(C)(C)[C@H](NC(=O)c1ccccc1O)C(=O)Nc1ncc([N+](=O)[O-])s1", "note": "[compound 8, (S)-N-(3,3-Dimethyl-1-((5-nitrothiazol-2-yl)amino)-1-oxobutan-2-yl)-2-hydroxybenzamide]", "values": [{"measurement": "solubility", "setting": "physchem [4]", "value": 18, "unit": "µM"}, {"measurement": "CC50 at 24 h", "setting": "[5]", "value": "> 132", "unit": "µM"}, {"measurement": "microsomal CLint", "setting": "in vitro", "value": 36.5, "unit": "µL/min/mg"}, {"measurement": "SI, selectivity index, CC50/IC50", "setting": "[1]; [9]", "value": ">83"}, {"measurement": "IC50", "setting": "[1]; [10]", "value": 1.6, "unit": "µM"}, {"measurement": "IC90", "setting": "[1]; [11]", "value": 79, "unit": "µM"}, {"measurement": "antiviral activity in words", "setting": "[1]; influenza A virus assay", "value": "retains good activity"}, {"measurement": "logP", "setting": "physchem [6]", "value": 3.3}, {"measurement": "hepatocyte CLint", "setting": "[7]", "value": 31.5, "unit": "µL/min/1e6 cells"}]}, {"smiles": "CC(C)(C)[C@H](NC(=O)c1ccccc1O)C(=O)Nc1ncc(Cl)s1", "note": "[compound 20, (S)-N-(3,3-Dimethyl-1-((5-chlorothiazol-2-yl)amino)-1-oxobutan-2-yl)-2-hydroxybenzamide]", "values": [{"measurement": "solubility", "setting": "physchem [4]", "value": 388, "unit": "µM"}, {"measurement": "toxicity under the assay conditions in words", "setting": "[8]", "value": "appeared toxic"}, {"measurement": "CC50 at 24 h", "setting": "[5]", "value": 40.8, "unit": "µM"}, {"measurement": "microsomal CLint", "setting": "in vitro", "value": 42.4, "unit": "µL/min/mg"}, {"measurement": "IC50", "setting": "[1]; [10]", "value": "> 40.8", "unit": "µM"}, {"measurement": "IC90", "setting": "[1]; [11]", "value": "> 40.8", "unit": "µM"}, {"measurement": "antiviral activity in words", "setting": "[1]; influenza A virus assay", "value": "essentially inactive; also recorded: virtually inactive"}, {"measurement": "logP", "setting": "physchem [6]", "value": "> 3.5"}, {"measurement": "hepatocyte CLint", "setting": "[7]", "value": 75.4, "unit": "µL/min/1e6 cells"}]}, {"smiles": "CC(C)[C@H](NC(=O)c1ccccc1O)C(=O)Nc1ncc([N+](=O)[O-])s1", "note": "[compound 21, (S)-2-Hydroxy-N-(3-methyl-1-((5-nitrothiazol-2-yl)amino)-1-oxobutan-2-yl)benzamide]", "values": [{"measurement": "solubility", "setting": "physchem [4]", "value": "> 1000", "unit": "µM"}, {"measurement": "CC50 at 24 h", "setting": "[5]", "value": "> 137", "unit": "µM"}, {"measurement": "microsomal CLint", "setting": "in vitro", "value": 55.9, "unit": "µL/min/mg"}, {"measurement": "SI, selectivity index, CC50/IC50", "setting": "[1]; [9]", "value": ">10"}, {"measurement": "IC50", "setting": "[1]; [10]", "value": 13.7, "unit": "µM"}, {"measurement": "IC90", "setting": "[1]; [11]", "value": "> 137", "unit": "µM"}, {"measurement": "antiviral activity in words", "setting": "[1]; influenza A virus assay", "value": "considerably less active"}, {"measurement": "logP", "setting": "physchem [6]", "value": 2.9}, {"measurement": "hepatocyte CLint", "setting": "[7]", "value": 67.7, "unit": "µL/min/1e6 cells"}]}, {"smiles": "CC(C)[C@H](NC(=O)c1ccccc1O)C(=O)Nc1ncc(Cl)s1", "note": "[compound 22, (S)-2-Hydroxy-N-(3-methyl-1-((5-chlorothiazol-2-yl)amino)-1-oxobutan-2-yl)benzamide]", "values": [{"measurement": "solubility", "setting": "physchem [4]", "value": 82, "unit": "µM"}, {"measurement": "toxicity under the assay conditions in words", "setting": "[8]", "value": "appeared toxic"}, {"measurement": "CC50 at 24 h", "setting": "[5]", "value": 42.4, "unit": "µM"}, {"measurement": "microsomal CLint", "setting": "in vitro", "value": 42.7, "unit": "µL/min/mg"}, {"measurement": "IC50", "setting": "[1]; [10]", "value": "> 42.4", "unit": "µM"}, {"measurement": "IC90", "setting": "[1]; [11]", "value": "> 42.4", "unit": "µM"}, {"measurement": "antiviral activity in words", "setting": "[1]; influenza A virus assay", "value": "essentially inactive; also recorded: virtually inactive"}, {"measurement": "hepatocyte CLint", "setting": "[7]", "value": 234, "unit": "µL/min/1e6 cells"}]}]}
